Measurements taken from US7973072B2, “Substituted benzo-condensed cyclohexanone derivatives and the use thereof for medicament production” (Gruenenthal GmbH, priority 2005, dated 2011).

What was measured:
[1] = molecular target: T1, human vanilloid receptor 1 (VR1) (Homo sapiens, UniProt Q8NER1); assay: FLIPR Ca2+ functional study on human vanilloid receptor 1 (CHO K1 cells transfected with human VR1); format: cell-based; conditions: for inhibition at 10 µM: CHO-K1, read-out: VR1 (human) (% inhibition compared to 10 μM CP); for inhibition at 10 µM / VR1 (human) (% inhibition compared to 10 μM CP): test compound 10 μM, suppression of Ca2+ current after 100 nM capsaicin, relative to maximum inhibition with 10 μM capsaicin (CP); for EC50: agonistic action
T1 construct: expressed in transfected cells; host or cells: CHO K1 cells (ECACC), stably transfected
T1 sequence (Q8NER1 whole entry): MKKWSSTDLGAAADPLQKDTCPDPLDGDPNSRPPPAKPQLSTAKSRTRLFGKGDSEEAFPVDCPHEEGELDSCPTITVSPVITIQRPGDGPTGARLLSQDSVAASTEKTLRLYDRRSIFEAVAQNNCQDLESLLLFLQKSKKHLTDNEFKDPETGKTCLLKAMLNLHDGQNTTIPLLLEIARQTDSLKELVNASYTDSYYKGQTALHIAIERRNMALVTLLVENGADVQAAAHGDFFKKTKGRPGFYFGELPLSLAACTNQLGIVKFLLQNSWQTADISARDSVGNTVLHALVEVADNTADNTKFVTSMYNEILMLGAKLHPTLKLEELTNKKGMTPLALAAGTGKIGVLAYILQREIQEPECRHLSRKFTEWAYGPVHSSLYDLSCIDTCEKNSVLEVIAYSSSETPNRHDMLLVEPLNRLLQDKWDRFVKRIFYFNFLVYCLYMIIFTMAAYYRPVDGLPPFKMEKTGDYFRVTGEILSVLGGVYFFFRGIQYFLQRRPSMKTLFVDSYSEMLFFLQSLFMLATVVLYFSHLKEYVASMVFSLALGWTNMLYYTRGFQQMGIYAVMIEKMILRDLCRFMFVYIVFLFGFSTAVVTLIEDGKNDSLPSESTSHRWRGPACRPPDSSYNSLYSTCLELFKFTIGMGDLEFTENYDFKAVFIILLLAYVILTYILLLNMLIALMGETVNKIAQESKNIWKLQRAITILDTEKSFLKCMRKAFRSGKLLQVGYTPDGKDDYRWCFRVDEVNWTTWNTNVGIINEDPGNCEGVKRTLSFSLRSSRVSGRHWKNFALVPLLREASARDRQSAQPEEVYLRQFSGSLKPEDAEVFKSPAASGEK
Protocol: Chinese hamster ovary cells (CHO K1 cells, European Collection of Cell Cultures (ECACC), England) are transfected stably with the human vanilloid receptor 1 (VR1) gene or the vanilloid receptor 1 (VR1) gene of the rat. For functional studies, these cells are plated out onto poly-D-lysine-coated black 96-well plates with a clear bottom (BD Biosciences, Heidelberg, Germany) in a density of 25 000 cells/well. The cells are incubated overnight at 37° C. and 5% CO2 in culture medium (Ham's Nutrient Mixture F12, Gibco Invitrogen GmbH, Karlsruhe, Germany) with 10% by volume of FBS (fetal bovine serum, Gibco Invitrogen GmbH, Karlsruhe, Germany), and 18 μg/ml of L-proline (Gibco Invitrogen GmbH, Karlsruhe, Germany). The next day, the cells are laden with 2 μM Fluo-4 and 0.01% by volume of Pluronic F127 (Molecular Probes Europe BV, Leiden, The Netherlands) in HBSS buffer (Hank's buffered saline solution, Gibco Invitrogen GmbH, Karlsruhe, Germany) at 37° C. for 30 min. Subsequently, the plates are washed 3 times with HBSS buffer and, after a further incubation of 15 minutes at room temperature, used for Ca^2+ measurement in the FLIPR assay. The Ca^2+-dependent fluorescence is measured before and after addition of substances λex=488 nm, λem=540 nm). The quantification is effected by measuring the highest fluorescence intensity (FC, fluorescence counts) over the time.
The FLIPR protocol consists of 2 substance additions. First, the compounds to be tested (10 μM) are pipetted onto the cells obtained according to Ia or Ib and the Ca^2+ current is compared with the control (capsaicin 10 μM). This gives rise to the result in % activation based on the Ca^2+ signal after addition of 10 μM capsaicin (CP). After incubation for 5 minutes, 100 nM capsaicin is applied and the current of Ca^2+ is likewise determined.
Desensitizing agonists and antagonists lead to a suppression in the Ca^2+ current. % inhibition is calculated compared to the maximum achievable inhibition with 10 μM capsaicin.
Triple determinations (n=3) are performed and they are repeated in at least 3 independent experiments (N=4).

[2] = molecular target: T2, vanilloid receptor 1 (VR1/TRPV1) of the rat (Rattus norvegicus, UniProt O35433); assay: FLIPR Ca2+ functional study on rat vanilloid receptor 1 (rat dorsal root ganglia cells or CHO K1 cells transfected with rat VR1); format: cell-based; conditions: for activation at 10 µM / inhibition at 10 µM: CHO-K1; for activation at 10 µM / inhibition at 10 µM / VR1 (rat) (% stimulation compared to 10 μM CP) / VR1 (rat) (% inhibition compared to 10 μM CP): test compound 10 μM; for activation at 10 µM / VR1 (rat) (% stimulation compared to 10 μM CP): % activation based on Ca2+ signal after 10 μM capsaicin (CP); for activation at 10 µM: read-out: VR1 (rat) (% stimulation compared to 10 μM CP); for inhibition at 10 µM / VR1 (rat) (% inhibition compared to 10 μM CP): suppression of Ca2+ current after 100 nM capsaicin, relative to maximum inhibition with 10 μM capsaicin (CP); for inhibition at 10 µM: read-out: VR1 (rat) (% inhibition compared to 10 μM CP); for EC50: agonistic action
T2 construct: host or cells: rat dorsal root ganglia primary cells (Ia) or CHO K1 cells stably transfected with the rat VR1 gene (Ib)
T2 sequence (O35433 whole entry): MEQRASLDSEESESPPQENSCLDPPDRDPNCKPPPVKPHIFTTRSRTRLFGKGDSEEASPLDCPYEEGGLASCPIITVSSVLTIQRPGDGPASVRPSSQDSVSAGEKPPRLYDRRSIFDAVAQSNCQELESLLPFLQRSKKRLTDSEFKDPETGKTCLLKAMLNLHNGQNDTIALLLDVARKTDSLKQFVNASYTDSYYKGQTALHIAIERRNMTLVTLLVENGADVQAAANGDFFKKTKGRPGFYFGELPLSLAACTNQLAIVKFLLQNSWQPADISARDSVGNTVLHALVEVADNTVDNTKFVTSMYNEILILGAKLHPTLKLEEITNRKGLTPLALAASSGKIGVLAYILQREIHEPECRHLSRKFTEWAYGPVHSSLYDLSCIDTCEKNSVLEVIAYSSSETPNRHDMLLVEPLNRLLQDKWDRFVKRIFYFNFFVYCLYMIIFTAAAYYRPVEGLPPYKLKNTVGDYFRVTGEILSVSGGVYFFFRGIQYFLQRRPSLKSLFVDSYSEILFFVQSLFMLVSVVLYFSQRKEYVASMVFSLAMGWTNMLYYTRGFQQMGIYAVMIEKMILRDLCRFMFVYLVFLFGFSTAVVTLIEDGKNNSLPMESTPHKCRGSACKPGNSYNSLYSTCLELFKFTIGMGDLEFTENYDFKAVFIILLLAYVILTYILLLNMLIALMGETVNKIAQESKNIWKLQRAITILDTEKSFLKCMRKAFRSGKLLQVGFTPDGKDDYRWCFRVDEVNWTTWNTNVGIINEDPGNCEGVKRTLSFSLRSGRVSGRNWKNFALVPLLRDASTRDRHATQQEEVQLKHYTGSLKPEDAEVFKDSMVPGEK
Protocol: The agonistic or antagonistic action of the substances to be studied on the vanilloid receptor 1 (VR1/TRPV1) of the rat species can be determined with the following assay. In this assay, the Ca^2+ current through the receptor channel is quantified with the aid of a Ca^2+-sensitive dye (Fluo-4 type, Molecular Probes Europe BV, Leiden the Netherlands) in a fluorescent imaging plate reader (FLIPR, Molecular Devices, Sunnyvale, USA).
Complete medium: 50 ml HAMS F12 Nutrient Mixture (Gibco Invitrogen GmbH, Karlsruhe, Germany) with
10% by volume of FCS (fetal calf serum, Gibco Invitrogen GmbH, Karlsruhe, Germany, heat-inactivated);
2 mM L-glutamine (Sigma, Munich, Germany);
1% by weight of AA solution (antibiotic/antimycotic solution, PAA, Pasching, Austria) and 25 ng/ml of NGF medium (2.5 S, Gibco Invitrogen GmbH, Karlsruhe, Germany)
Cell culture plate: poly-D-lysine-coated, black 96-hole plates with a clear bottom (96 well black/clear plate, BD Biosciences, Heidelberg, Germany) are additionally coated with laminin (Gibco Invitrogen GmbH, Karlsruhe, Germany) by diluting laminin to a concentration of 100 μg/ml with PBS (Ca—Mg-free PBS, Gibco Invitrogen GmbH, Karlsruhe, Germany). Aliquots having a concentration of 100 μg/ml of laminin are withdrawn and stored at −20° C. The aliquots are diluted with PBS in a ratio of 1:10 to 10 μg/ml of laminin and in each case 50 μl of the solution are pipetted into a well of the cell culture plate. The cell culture plates are incubated at 37° C. for at least two hours, the supernatant solution is removed by suction and the wells are each washed twice with PBS. The coated cell culture plates are stored with supernatant PBS which is not removed until directly before the application of the cells.
The spinal column is removed from beheaded rats and placed directly into cold HBSS buffer (Hank's buffered saline solution, Gibco Invitrogen GmbH, Karlsruhe, Germany), i.e. placed in an ice bath, which has been admixed with 1% by volume of an AA solution (antibiotic/antimycotic solution, PAA, Pasching, Austria). The spinal column is severed longitudinally and removed from the spinal canal together with fasciae. Subsequently, the dorsal root ganglia (DRGs) are removed and in turn stored in cold HBSS buffer admixed with 1% by volume of an […]. The DRGs freed completely of blood residues and spinal nerves are in each case transferred to 500 μl of cold type 2 collagenase (PAA, Pasching, Austria) and incubated at 37° C. for 35 minutes. After addition of 2.5% by volume of trypsin (PAA, Pasching, Austria), incubation is continued at 37° C. for a further 10 minutes. After complete incubation, the enzyme solution is cautiously pipetted off and the remaining DRGs are each admixed with 500 μl of complete medium.
The DRGs are each suspended repeatedly, drawn through cannulas No. 1, No. 12 and No. 16 by means of a syringe and transferred to 50 ml Falcon tubes which are made up to 15 ml with complete medium. The contents of each Falcon tube are in each case filtered through a 70 μm Falcon filter insert and centrifuged at 1200 revolutions and room temperature for 10 minutes. The resulting pellet is in each case taken up in 250 μl of complete medium and the cell count is determined.
The number of cells in the suspension is adjusted to 3 times 10^5 per ml and in each case 150 μl of this suspension are added to one well of the cell culture plates coated as described above. In the incubator, the plates are left to stand at 37° C., 5% by volume of CO2 and 95% relative air humidity for two to three days.
Subsequently, the cells are laden with 2 μM Fluo-4 and 0.01% by volume of Pluronic F127 (Molecular Probes Europe BV, Leiden, the Netherlands) in HBSS buffer (Hank's buffered saline solution, Gibco Invitrogen GmbH, Karlsruhe, Germany) at 37° C. for 30 min, washed 3× with HBSS buffer and, after a further incubation of 15 minutes, used in the FLIPR assay at room temperature for Ca^2+ measurement. […]

With `Cc1cccc2c1SCC(CO)(COS(=O)(=O)c1ccc(C(C)(C)C)cc1)C2=O` (stereo not shown) [Example Compound 13, 4-tert-butylbenzenesulfonic acid 3-hydroxymethyl-8-methyl-4-oxo-thiochroman-3-ylmethyl ester] the inhibition at 10 µM [1] was 23.8%, the activation at 10 µM [2] was 0.81% and the inhibition at 10 µM [2] was 40.3%.

In the case of `Cc1cccc2c1C(=O)C(COC(=O)Nc1ccccc1)(COC(=O)Nc1ccccc1)CS2` [Example Compound 40, (5-methyl-4-oxothiochroman-3,3-diyl)bis(methylene)bis(phenylcarbamate)], the inhibition at 10 µM [1] is reported as 96.6%, the EC50 ([1]; FLIPR) is reported as 1.4 µM and the activation at 10 µM [2] is reported as 67%. It also gave an inhibition at 10 µM [2] of 106% and an EC50 ([2]; FLIPR) of 4.1 µM.

`O=C(Nc1ccccc1)OCC1(COC(=O)Nc2ccccc2)CSc2ccccc2C1=O` [Example Compound 41, 3,3-bis(phenylcarbamoyloxymethyl)thiochroman-4-one] gave an inhibition at 10 µM [1] of 95%, an EC50 ([1]; FLIPR) of 0.995 µM and an activation at 10 µM [2] of 38%. The inhibition at 10 µM [2] was 14% and the EC50 ([2]; FLIPR) was 2.4 µM.

With `COc1ccc(NC(=O)OCC2(COC(=O)Nc3ccc(OC)cc3)CSc3ccccc3C2=O)cc1` [Example Compound 42, 3,3-bis(4-methoxyphenylcarbamoyloxymethyl)thiochroman-4-one] the melting point was 58 to 63 °C, the inhibition at 10 µM [1] was 73.2% and the EC50 ([1]; FLIPR) was 3.05 µM. For the same molecule, the activation at 10 µM [2] was 37.8%, the inhibition at 10 µM [2] was 41.1% and the EC50 ([2]; FLIPR) was 9.95 µM.

In the case of `O=C(Nc1ccccc1)OCC1(COC(=O)Nc2ccccc2)CS(=O)(=O)c2ccccc2C1=O` [Example Compound 43, 3,3-bis(phenylcarbamoyloxymethyl)-1,1-dioxo-1λ^6-thiochroman-4-one], the melting point is reported as 72 to 78 °C, the inhibition at 10 µM [1] is reported as 9.79% and the EC50 ([1]; FLIPR) is reported as 9 µM. For the same molecule, the activation at 10 µM [2] was 48.5%, the inhibition at 10 µM [2] was 83.9% and the EC50 ([2]; FLIPR) was 25.4 µM.

`Cc1cccc2c1C(=O)C(COC(=O)Nc1ccccc1)(COC(=O)Nc1ccccc1)CS2(=O)=O` [Example Compound 46, 3,3-bis(phenylcarbamoyloxymethyl)-5-methyl-1,1-dioxo-1λ^6-thiochroman-4-one] showed an inhibition at 10 µM [1] of 38.5%, an EC50 ([1]; FLIPR) of 6.4 µM and an activation at 10 µM [2] of 25%. It also gave an inhibition at 10 µM [2] of 96.8% and an EC50 ([2]; FLIPR) of 13.8 µM.

Molecule `CC(C)(C)c1ccccc1NC(=O)OCC1(COC(=O)Nc2ccccc2C(C)(C)C)CSc2ccccc2C1=O` [Example Compound 51, 3,3-bis(2-tert-butylphenylcarbamoyloxymethyl)thiochroman-4-one] has a melting point of 62 to 68 °C.

Molecule `O=C(Nc1ccc(C(F)(F)F)cc1)OCC1(COC(=O)Nc2ccc(C(F)(F)F)cc2)CSc2ccccc2C1=O` [Example Compound 52, 3,3-bis(4-trifluoromethylphenylcarbamoyloxymethyl)thiochroman-4-one] has a melting point of 76 to 82 °C.

`O=C(Nc1cccc(C(F)(F)F)c1)OCC1(COC(=O)Nc2cccc(C(F)(F)F)c2)CSc2ccccc2C1=O` [Example Compound 54, 3,3-bis(3-trifluoromethylphenylcarbamoyloxymethyl)thiochroman-4-one] showed a melting point of 58 to 63 °C.

With “(6-fluoro-4-oxothiochroman-3,3-diyl)bis(methylene)bis(3-(trifluoromethyl)phenylcarbamate) [Example Compound 30]” the “VR1 (human) (% inhibition compared to 10 μM CP)” value [1] was 80.26%, the “VR1 (rat) (% stimulation compared to 10 μM CP)” value [2] was 94.65% and the “VR1 (rat) (% inhibition compared to 10 μM CP)” value [2] was 44.38%.

For “(7,8-dichloro-4-oxothiochroman-3,3-diyl)bis(methylene)bis(2-(trifluoromethyl)phenylcarbamate) [Example Compound 31]”, the “VR1 (human) (% inhibition compared to 10 μM CP)” value [1] was 83.36%, the “VR1 (rat) (% stimulation compared to 10 μM CP)” value [2] was 22.05% and the “VR1 (rat) (% inhibition compared to 10 μM CP)” value [2] was 38.68%.

For “(7,8-dichloro-4-oxothiochroman-3,3-diyl)bis(methylene)bis(3-(trifluoromethyl)phenylcarbamate) [Example Compound 29]”, the “VR1 (human) (% inhibition compared to 10 μM CP)” value [1] was 91.55%, the “VR1 (rat) (% stimulation compared to 10 μM CP)” value [2] was 88.01% and the “VR1 (rat) (% inhibition compared to 10 μM CP)” value [2] was 100.80%.

For “(7-methyl-4-oxothiochroman-3,3-diyl)bis(methylene)bis(phenylcarbamate) [Example Compound 39]”, the EC50 ([1]; FLIPR) was 0.99 µM, the “VR1 (human) (% inhibition compared to 10 μM CP)” value [1] was 88.33% and the EC50 ([2]; FLIPR) was 5.86 µM. For the same molecule, the “VR1 (rat) (% stimulation compared to 10 μM CP)” value [2] was 109.36% and the “VR1 (rat) (% inhibition compared to 10 μM CP)” value [2] was 119.74%.

With “(8-chloro-4-oxothiochroman-3,3-diyl)bis(methylene)bis(2-(trifluoromethyl)phenylcarbamate) [Example Compound 14]” the “VR1 (human) (% inhibition compared to 10 μM CP)” value [1] was 69.64%, the “VR1 (rat) (% stimulation compared to 10 μM CP)” value [2] was 17.64% and the “VR1 (rat) (% inhibition compared to 10 μM CP)” value [2] was 61.99%.

For “(8-chloro-4-oxothiochroman-3,3-diyl)bis(methylene)bis(3-(trifluoromethyl)phenylcarbamate) [Example Compound 20]”, the IC50 ([1]; FLIPR, antagonistic action) was 5.78 µM, the “VR1 (human) (% inhibition compared to 10 μM CP)” value [1] was 88.98% and the IC50 ([2]; FLIPR, antagonistic action) was 6.44 µM. For the same molecule, the “VR1 (rat) (% stimulation compared to 10 μM CP)” value [2] was 47.96% and the “VR1 (rat) (% inhibition compared to 10 μM CP)” value [2] was 107.78%.
